Like-named read-outs stand apart in the source and are kept apart here. Each block holds one compound with its values, some of them ahead of it.
What was measured:
D2 dopamine receptor = target: T1, D2 dopamine receptor (Rattus norvegicus, UniProt P61169); experiment: Inhibition of [^125 I]NCQ298 binding to D2 dopamine receptors expressed in Sf9 cells; settings: for HC D2: Table 4, Hill coefficient
T1 construct: made in house; host or cells: Sf9 insect cells infected with recombinant baculovirus (AcMNPVrD2L or AcMNPVrD2S), membrane homogenates

D3 dopamine receptor = target: T2, D3 dopamine receptor (Rattus norvegicus, UniProt P19020); experiment: Inhibition of [^125 I]NCQ298 binding to D3 dopamine receptors expressed in Sf9 cells; settings: for HC D3: Table 4, Hill coefficient; for Ratio D2/D3: Ki(D2)/Ki(D3)
T2 construct: made in house; host or cells: Sf9 insect cells infected with recombinant baculovirus AcMNPVrD3, membrane homogenates
Method: The construction of pVL1393-rD3 was previously described. […] An aliquot of membranes was used for radioligand binding.
Membranes from AcMNPV-rD3 infected Sf9 cells were prepared. […] Assays were incubated at 37° C. for 20 min. then filtered and washed as described above.

[1] = In-vivo biodistribution in rats; parameters: species or system rat; Brain uptake: unit not given here; settings: for Brain uptake: table; for tissue uptake at 2 min / tissue uptake at 1 h / tissue uptake at 0.5 h: rat
Method: In-vivo biodistribution studies were performed in rats^27 with the two hydroxylated radioligands: [^123 I]-7-OH-DPAT and [^123 I]-7-OH-PIPAT in rats. Concerning [^123 I]-7-OH-DPAT rats were killed either two minutes or thirty minutes post injection and the data are reported in Table 5. […] On the contrary, [^123 I]-7-OH-PIPAT presented a very high brain uptake: 11.812, 9,458 and 5.433% dose/gram of tissue at 2, 30 and 60 min. respectively (See Table 6). […] However, the brain regions, rich in D3 receptors such as Calleja island and olfactory tubercle need to be more deeply investigated.

[2] = target: D3 receptors (expressed in Sf9 cells) (Rattus norvegicus, UniProt P19020)
Method: Plasmid DNA was isolated by alkaline dialysis and purified by CsCl density gradient centrifugation and overnight dialysis for transfection of Sf9 cells. […] A monolayer of Sf9 cells (approximately 2×10^6 cells/T25 plate) was cotransfected by calcium phosphate precipitation, with 1 mg of AcMNPV DNA (provided by Dr. Max Summers, Texas A&M University, College Station, Tex.) and 2 mg of recombinant transfer vector DNA. […] Putative recombinant viral plaques were chosen by visual screening for occlusion-negative plaques and used to infect 1×10^6 Sf9 cells in a 6-well plate (CoStar, Cambridge, Mass.). Four days after infection, cells were harvested and membranes were prepared. An aliquot of membranes was used for radioligand binding. […] The membrane homogenates of AcMNPVrD3 infected Sf9 cells were prepared as described. Briefly, the harvested cells were centrifuged, resuspended and homogenized in buffer containing 50 mM Tris, pH7.4, 150mM NaCl, 10 mM EDTA and a mixture of protease inhibitors (1 mg/ml aprotinin, 1 mg/ml leupeptin, 1 mg/ml soybean trypsin inhibitor, 10 mg/ml PMSF). The final pellets obtained were resuspended in the same buffer and kept at -20° C. for radioligand binding assays.
Binding assays were performed in glass tubes (12×75 mm) in a final volume of 0.2 ml. The buffer used for the dilution contained 50 mM Tris, pH 7.4, and the protease inhibitors mixture. […] The competition experiments were performed in the presence of 120 mM NaCl. […] After incubation for 30 min at 37° C. or 90 min at 25° C., the bound ligand was separated from the free ligand by filtration through glass fiber filters No. 25 (Schleicher & Schuell, Keene, N.H.) soaked with 0.2% protamine free base. The filters were then washed twice with 4 ml of ice-cold buffer (containing 50 mM Tris-HCl, pH 7.4) and the radioactivity on the filters was counted in a gamma counter (Packard 5000) with 70% efficiency.

[3] = Table 4 and its discussion, [^125 I]-NCQ298 0.05 nM, 37° C., 20 min, read-out: Ki D2
[4] = Table 4 and its discussion, [^125 I]-NCQ298 0.1 nM, 37° C., 20 min, read-out: Ki D3

Sequence of D3 receptors (expressed in Sf9 cells) (P19020 whole entry): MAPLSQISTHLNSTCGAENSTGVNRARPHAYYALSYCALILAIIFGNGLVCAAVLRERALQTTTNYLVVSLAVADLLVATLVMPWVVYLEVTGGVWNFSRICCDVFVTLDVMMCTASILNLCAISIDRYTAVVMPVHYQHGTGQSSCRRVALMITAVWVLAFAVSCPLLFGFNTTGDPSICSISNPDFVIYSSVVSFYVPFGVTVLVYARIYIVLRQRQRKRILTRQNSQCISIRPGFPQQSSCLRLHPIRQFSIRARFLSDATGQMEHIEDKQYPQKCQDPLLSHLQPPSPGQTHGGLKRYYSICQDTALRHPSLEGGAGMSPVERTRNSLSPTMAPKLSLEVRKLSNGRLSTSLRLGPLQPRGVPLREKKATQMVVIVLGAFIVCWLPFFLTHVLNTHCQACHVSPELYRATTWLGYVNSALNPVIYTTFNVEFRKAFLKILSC
T2 sequence (P19020 whole entry): as above
T1 sequence (P61169 whole entry): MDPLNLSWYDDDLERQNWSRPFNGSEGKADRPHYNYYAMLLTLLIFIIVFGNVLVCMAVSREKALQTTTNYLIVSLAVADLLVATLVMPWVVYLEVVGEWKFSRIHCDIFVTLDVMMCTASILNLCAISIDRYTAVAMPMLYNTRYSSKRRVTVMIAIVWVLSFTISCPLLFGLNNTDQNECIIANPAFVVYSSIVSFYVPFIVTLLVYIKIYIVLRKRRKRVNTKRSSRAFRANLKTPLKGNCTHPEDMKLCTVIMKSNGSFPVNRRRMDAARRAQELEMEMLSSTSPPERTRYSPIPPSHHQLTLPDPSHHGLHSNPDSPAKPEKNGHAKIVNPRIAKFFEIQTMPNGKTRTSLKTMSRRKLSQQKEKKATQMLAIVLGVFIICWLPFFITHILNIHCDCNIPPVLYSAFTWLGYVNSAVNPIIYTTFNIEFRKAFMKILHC

SMILES: CCCN(CCC)C1CCc2ccc(OC)cc2C1 (stereo not shown) [7-MeO-DPAT, 7Methoxy-2-N,N-n-Dipropylaminotetralin]
Ki (D2 dopamine receptor): 2170 ± 216 nM
HC D2 (D2 dopamine receptor): 0.95
Ki (D3 dopamine receptor): 280 ± 36 nM
HC D3 (D3 dopamine receptor): 0.98
Ratio D2/D3 (D3 dopamine receptor; Table 4 and its discussion): 7.7

SMILES: CCCN(C/C=C/I)C1CCc2ccc(O)cc2C1 (stereo not drawn) [trans-7-OH-PIPAT]
Ki (D2 dopamine receptor; Table 2, ± SE, [^125 I]NCQ298, Sf9 cells, read-out: Ki D2): 265 ± 36 nM
HC D2 (D2 dopamine receptor): 0.96
Ki (D2 dopamine receptor; [3]): 265 ± 48 nM

HC D2 (D2 dopamine receptor): 0.78
Ki (D2 dopamine receptor; [3]): 5880 ± 471 nM
HC D3 (D3 dopamine receptor): 0.80
Ratio D2/D3 (D3 dopamine receptor; Table 4 and its discussion): 3.1
Ki (D3 dopamine receptor; [4]): 1870 ± 224 nM
SMILES: COc1ccc2c(c1)CC(NCc1ccccc1)CC2 (stereo not shown) [7-MeO-BAT, 7Methoxy-2-N-Benzylaminotetralin]

SMILES: CCCNC1CCc2ccc(OC)cc2C1 (stereo not shown) [7-MeO-MPAT, 7Methoxy-2-N-n-Propylaminotetralin]
Ki (D2 dopamine receptor): 5176 ± 0.96 nM
HC D2 (D2 dopamine receptor): 0.96
Ki (D3 dopamine receptor): 1310 ± 249 nM
HC D3 (D3 dopamine receptor): 0.97
Ratio D2/D3 (D3 dopamine receptor; Table 4 and its discussion): 4.0

HC D2 (D2 dopamine receptor): 1.22
Ki (D2 dopamine receptor; [3]): 1380 ± 193 nM
HC D3 (D3 dopamine receptor): 0.93
Ratio D2/D3 (D3 dopamine receptor; Table 4 and its discussion): 5.4
Ki (D3 dopamine receptor; [4]): 257 ± 31 nM
SMILES: CCCN(C/C=C/I)C1CCc2ccc(OC)cc2C1 (stereo not shown) [7-MeO-PIPAT, 7Methoxy-2-[N-3'-(1'-Iodo-1'E-Propenyl)-N-n-Propylamino]tetralin]

SMILES: CCCNC1CCc2ccc(O)cc2C1 (stereo not shown) [7-OH-MPAT, 7Hydroxy-2-N-n-Propylaminotetralin]
HC D2 (D2 dopamine receptor): 0.80
Ki (D2 dopamine receptor; [3]): 620 ± 124 nM
Ki (D3 dopamine receptor): 3.25 ± 0.45 nM
affinity / selectivity for the D3 receptor (D3 dopamine receptor): comparative affinity as 7-OH-DPAT for D3 receptors
HC D3 (D3 dopamine receptor): 0.80
Ratio D2/D3 (D3 dopamine receptor; Table 4 and its discussion): 191

SMILES: CCCN(C/C=C/[123I])C1CCc2ccc(O)cc2C1 (stereo not shown) [[^123 I]-7-OH-PIPAT]
Blood uptake ([1]; 2 min): 2.621 ± 0.298
Heart uptake ([1]; 2 min): 1.780 ± 0.231
Kidney uptake ([1]; 2 min): 5.887 ± 1.088
Liver uptake ([1]; 2 min): 9.687 ± 3.302
Lung uptake ([1]; 2 min): 5.394 ± 0.589
Muscle uptake ([1]; 2 min): 33.199 ± 11.64
Skin uptake ([1]; 2 min): 8.816 ± 1.656
Spleen uptake ([1]; 2 min): 0.449 ± 0.161
Thyroid uptake ([1]; 2 min): 0.174 ± 0.012
Brain uptake ([1]; 2 min): 2.612 ± 0.498
Blood uptake ([1]; 30 min): 0.785 ± 0.089
Heart uptake ([1]; 30 min): 0.203 ± 0.054
Kidney uptake ([1]; 30 min): 0.978 ± 0.276
Liver uptake ([1]; 30 min): 3.573 ± 0.569
Lung uptake ([1]; 30 min): 0.768 ± 0.146
Muscle uptake ([1]; 30 min): 23.546 ± 8.469
Skin uptake ([1]; 30 min): 6.962 ± 0.362
Spleen uptake ([1]; 30 min): 0.284 ± 0.011
Thyroid uptake ([1]; 30 min): 0.045 ± 0.007
Brain uptake ([1]; 30 min): 0.660 ± 0.096
Blood uptake ([1]; 60 min): 0.742 ± 0.075
Heart uptake ([1]; 60 min): 0.100 ± 0.010
Kidney uptake ([1]; 60 min): 1.042 ± 0.114
Liver uptake ([1]; 60 min): 2.335 ± 1.391
Lung uptake ([1]; 60 min): 0.437 ± 0.038
Muscle uptake ([1]; 60 min): 12.882 ± 3.927
Skin uptake ([1]; 60 min): 6.148 ± 0.922
Spleen uptake ([1]; 60 min): 0.180 ± 0.023
Thyroid uptake ([1]; 60 min): 0.096 ± 0.067
Brain uptake ([1]; 60 min): 0.321 ± 0.037
tissue uptake at 2 min ([1]; brain, 2 min, read-out: brain uptake): 11.8 %ID/g
tissue uptake at 1 h ([1]; brain, 60 min, read-out: brain uptake): 5.43 %ID/g
tissue uptake at 2 min ([1]; cerebellum, 2 min, read-out: Regional uptake, Cerebellum): 1.61 ± 0.403 %ID/g
tissue uptake at 0.5 h ([1]; cerebellum, 30 min, read-out: Regional uptake, Cerebellum): 0.379 ± 0.009 %ID/g
tissue uptake at 1 h ([1]; cerebellum, 60 min, read-out: Regional uptake, Cerebellum): 0.215 ± 0.025 %ID/g
tissue uptake at 2 min ([1]; cortex, 2 min, read-out: Regional uptake, Cortex): 2 ± 0.038 %ID/g
tissue uptake at 0.5 h ([1]; cortex, 30 min, read-out: Regional uptake, Cortex): 0.265 ± 0.086 %ID/g
tissue uptake at 1 h ([1]; cortex, 60 min, read-out: Regional uptake, Cortex): 0.206 ± 0.022 %ID/g
tissue uptake at 2 min ([1]; hippocampus, 2 min, read-out: Regional uptake, Hippocampus): 1.63 ± 0.222 %ID/g
tissue uptake at 0.5 h ([1]; hippocampus, 30 min, read-out: Regional uptake, Hippocampus): 0.261 ± 0.064 %ID/g
tissue uptake at 1 h ([1]; hippocampus, 60 min, read-out: Regional uptake, Hippocampus): 0.216 ± 0.02 %ID/g
tissue uptake at 2 min ([1]; hypothalamus, 2 min, read-out: Regional uptake, Hypothalamus): 1.83 ± 0.233 %ID/g
tissue uptake at 0.5 h ([1]; hypothalamus, 30 min, read-out: Regional uptake, Hypothalamus): 0.251 ± 0.009 %ID/g
tissue uptake at 1 h ([1]; hypothalamus, 60 min, read-out: Regional uptake, Hypothalamus): 0.254 ± 0.033 %ID/g
tissue uptake at 2 min ([1]; rem, 2 min, read-out: Regional uptake, REM): 1.67 ± 0.224 %ID/g
tissue uptake at 0.5 h ([1]; rem, 30 min, read-out: Regional uptake, REM): 0.281 ± 0.076 %ID/g
tissue uptake at 1 h ([1]; rem, 60 min, read-out: Regional uptake, REM): 0.218 ± 0.025 %ID/g
tissue uptake at 2 min ([1]; striatum, 2 min, read-out: Regional uptake, Striatum): 1.62 ± 0.236 %ID/g
tissue uptake at 0.5 h ([1]; striatum, 30 min, read-out: Regional uptake, Striatum): 0.263 ± 0.08 %ID/g
tissue uptake at 1 h ([1]; striatum, 60 min, read-out: Regional uptake, Striatum): 0.212 ± 0.029 %ID/g
regional uptake in the different area of the brain ([1]; rats, brain): no regional uptake was observed

SMILES: CCCN(CCC)C1CCc2ccc(O)c(I)c2C1 (stereo not shown) [8-I-7-OH-DPAT, 7Hydroxy-8-Iodo-2-N,N-n-Dipropylaminotetralin]
HC D2 (D2 dopamine receptor): 0.92
Ki (D2 dopamine receptor; [3]): 353 ± 31 nM
Ki (D3 dopamine receptor): 21.3 ± 2.9 nM
HC D3 (D3 dopamine receptor): 0.85
Ratio D2/D3 (D3 dopamine receptor; Table 4 and its discussion): 16.6

SMILES: COC(=O)[C@@H]1[C@H]2C[C@H]3c4[nH]c5ccccc5c4CCN3C[C@@H]2CC[C@@H]1O [Yohimbine]
Hill Co. ([2]; Table 3, [^125 I]trans-7-OH-PIPAT competition, 37° C., 120 mM NaCl): 0.97
affinity for the D3 receptor ([2]; competition with [^125 I]trans-7-OH-PIPAT): moderate to low affinity
Ki ([2]; ± SE, [^125 I]trans-7-OH-PIPAT 0.1-0.2 nM, 37° C., 120 mM NaCl): 2430 ± 146 nM
